We go through 19 compounds from patent US11459312B2, “Sulphur substituted 3-oxo-2,3-dihydropyridazine-4-carboxamides” (Bayer Aktiengesellschaft, priority 2017, dated 2022).

The structures appear in SMILES notation.

This experiment addresses T1, AHR (Homo sapiens, UniProt P35869).
T1 sequence (P35869 11-848): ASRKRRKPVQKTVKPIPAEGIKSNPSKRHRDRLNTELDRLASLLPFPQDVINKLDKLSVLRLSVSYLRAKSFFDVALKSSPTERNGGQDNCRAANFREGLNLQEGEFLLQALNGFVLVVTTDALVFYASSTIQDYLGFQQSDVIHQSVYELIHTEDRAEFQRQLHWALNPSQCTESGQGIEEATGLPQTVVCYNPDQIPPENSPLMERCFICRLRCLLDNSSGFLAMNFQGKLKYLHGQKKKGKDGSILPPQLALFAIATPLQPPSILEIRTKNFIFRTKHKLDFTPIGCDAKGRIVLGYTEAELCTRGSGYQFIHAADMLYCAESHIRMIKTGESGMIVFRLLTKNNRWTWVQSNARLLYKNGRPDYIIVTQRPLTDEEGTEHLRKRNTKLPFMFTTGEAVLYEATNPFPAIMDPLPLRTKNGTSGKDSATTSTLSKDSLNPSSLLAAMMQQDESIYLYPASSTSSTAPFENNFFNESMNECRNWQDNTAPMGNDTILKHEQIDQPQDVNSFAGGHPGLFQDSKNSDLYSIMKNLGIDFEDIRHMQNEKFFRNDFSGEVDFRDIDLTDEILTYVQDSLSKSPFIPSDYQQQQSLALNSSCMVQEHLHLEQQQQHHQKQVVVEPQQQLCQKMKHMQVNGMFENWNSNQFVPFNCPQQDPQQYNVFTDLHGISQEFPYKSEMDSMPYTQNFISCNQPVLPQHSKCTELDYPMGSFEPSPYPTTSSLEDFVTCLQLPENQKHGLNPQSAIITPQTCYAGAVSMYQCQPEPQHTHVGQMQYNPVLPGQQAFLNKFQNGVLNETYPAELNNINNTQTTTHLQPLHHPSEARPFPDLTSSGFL
Description: In vitro assay 1: AHR-luc transactivation assay, antagonism in human cell line (U87 glioblastoma cells, kynurenic acid prestimulated). The note with it: firefly luciferase DRE reporter, 150 μM kynurenic acid, 20 hours, read-out: Assay 1: AHR-luc Hum Antagonism IC50. The arrangement: U87 glioblastoma cells (ATCC) endogenously expressing AHR; host or cells: U87 glioblastoma cells, stably transfected with DRE-firefly luciferase and renilla reporter constructs only. Type of experiment: cell-based. As for the experimental part:
Transactivation Assay in Human Cell Line (In Vitro Assays 1 and 2)
Transactivation assays were carried out in U87 glioblastoma cells (ATCC) endogenously expressing AHR. In addition the cells were stably transfected with an AHR inducible firefly luciferase reporter gene construct that carried AHR-binding sites (DRE) in its promoter and a renilla reporter gene construct with constitutively active promoter. Kynurenic acid is an endogenous AHR activating ligand and was used to prestimulate test cells prior to testing the antagonistic properties of compounds.
In Vitro Assay 1: Antagonism in Human Cell Line
Cells in medium (tryptophan free RPMI, 1% FCS, 2 mM Glutamine) supplemented with 150 μM kynurenic acid were grown for 20 hours in absence (negative control) or presence of increasing concentrations of test compounds (typical dilutions: […], 0.25 nmol/L, 0.89 nmol/L; 3.1 nmol/L, 11 nmol/L, 38 nmol/L, 130 nmol/L, 470 nmol/L, 1.6 μmol/L, 5.7 μmol/L and 20 μmol/L in duplicates). As positive inhibition control cells supplemented with 150 μM kynurenic acid were incubated in presence of 5 μM Staurosporin. Normalization was done by positive and negative controls.
Firefly luciferase and Renilla activity was determined by the DualGlo Luciferase Assay System (Promega, #2920). Renilla activity was used to assess toxic effects of compounds.
For orientation: IC50 means the point on the concentration scale where inhibition reaches its midpoint. For the compound `O=C(N[C@@H]1C[S+]([O-])C[C@@H]1O)c1cc(-c2ccc(C(F)(F)F)cc2)nn(-c2cccnc2)c1=O` (single isomer, unassigned) [Example 37, N-[(cis)-4-hydroxy-1-oxidotetrahydro-thiophen-3-yl]-3-oxo-2-(pyridin-3-yl)-6-[4-(trifluoromethyl)phenyl]-2,3-dihydropyridazine-4-carboxamide], the IC50 was 150 nM.

With `O=C(N[C@@H]1CCS(=O)(=O)C1)c1cc(-c2ccc(Cl)cc2)nn(-c2cccc(F)c2)c1=O` (stereo in doubt) [Example 58, 6-(4-Chlorophenyl)-N-(1,1-dioxidotetrahydrothiophen-3-yl)-2-(3-fluorophenyl)-3-oxo-2,3-dihydropyridazine-4-carboxamide], the IC50 was 145 nM.

With `O=C(N[C@@H]1CS(=O)(=O)C[C@@H]1O)c1cc(-c2ccc(C(F)(F)F)cc2)nn(-c2cccnc2)c1=O` (single isomer, unassigned) [Example 17, (+)-N-[(cis)-4-hydroxy-1,1-dioxidotetrahydro-thiophen-3-yl]-3-oxo-2-(pyridin-3-yl)-6-[4-(trifluoromethyl)phenyl]-2,3-dihydropyridazine-4-carboxamide], the IC50 stood at 16.2 nM.

On to `CSC[C@H](C)NC(=O)c1cc(-c2ccc(C(F)(F)F)cc2)nn(-c2cnn(C)c2)c1=O` [Example 9, 2-(1-Methyl-1H-pyrazol-4-yl)-N-[(2S)-1-(methylsulfanyl)propan-2-yl]-3-oxo-6-[4-(trifluoromethyl)phenyl]-2,3-dihydropyridazine-4-carboxamide], for which the half-maximal inhibitory concentration (IC50) was found to be 6.99 nM.

`CS(=N)(=O)CCNC(=O)c1cc(-c2ccc(Cl)cc2)nn(-c2cccc(F)c2)c1=O` (single isomer, unassigned) [Example 54, 6-(4-Chlorophenyl)-2-(3-fluorophenyl)-N-[2-(S-methylsulfonimidoyl)ethyl]-3-oxo-2,3-dihydropyridazine-4-carboxamide]: the IC50 was 581 nM.

Turning to `O=C(N[C@@H]1CS(=O)(=O)C[C@@H]1O)c1cc(-c2ccc(C(F)(F)F)cc2)nn(-c2cnsc2)c1=O` (single isomer, unassigned) [Example 11, (−)-N-[(cis)-4-hydroxy-1,1-dioxidotetrahydro-thiophen-3-yl]-3-oxo-2-(1,2-thiazol-4-yl)-6-[4-(trifluoromethyl)phenyl]-2,3-dihydropyridazine-4-carboxamide], the IC50 came out at 3.46 nM.

Turning to `N=S1(=O)C[C@H](O)[C@H](NC(=O)c2cc(-c3ccc(Cl)cc3)nn(-c3cccc(F)c3)c2=O)C1` (single isomer, unassigned) [Example 46, 6-(4-chlorophenyl)-2-(3-fluorophenyl)-N-[(cis)-4-hydroxy-1-imino-1-oxidotetrahydro-1H-1lambda4-thiophen-3-yl]-3-oxo-2,3-dihydropyridazine-4-carboxamide], the half-inhibitory concentration (IC50) is 103 nM.

Turning to `C[C@@H](C[S+](C)[O-])NC(=O)c1cc(-c2ccc(Cl)cc2)nn(-c2cnn(C)c2)c1=O` (stereo partly drawn) [Example 49, 6-(4-Chlorophenyl)-2-(1-methyl-1H-pyrazol-4-yl)-N-[(2S)-1-(methylsulfinyl)propan-2-yl]-3-oxo-2,3-dihydropyridazine-4-carboxamide], the IC50 amounted to 26.4 nM.

For the compound `Cn1cc(-n2nc(-c3ccc(C(F)(F)F)cc3)cc(C(=O)N[C@@H]3C[S+]([O-])C[C@@H]3O)c2=O)cn1` (relative stereo) [Example 32, N-[(cis)-4-hydroxy-1-oxidotetrahydro-thiophen-3-yl]-2-(1-methyl-1H-pyrazol-4-yl)-3-oxo-6-[4-(trifluoromethyl)phenyl]-2,3-dihydropyridazine-4-carboxamide], the IC50 amounted to 41.6 nM.

As for `C[C@@H](C[S+](C)[O-])NC(=O)c1cc(-c2ccc(Cl)cc2)nn(-c2cccc(F)c2)c1=O` (mixture of isomers) [Example 3, 6-(4-Chlorophenyl)-2-(3-fluorophenyl)-N-[(2S)-1-(methylsulfinyl)propan-2-yl]-3-oxo-2,3-dihydropyridazine-4-carboxamide], the IC50 stood at 44.2 nM.

`O=C(N[C@@H]1C[S+]([O-])C[C@@H]1O)c1cc(-c2ccc(C(F)(F)F)cc2)nn(-c2cccnc2)c1=O` (single isomer, unassigned) [Example 36, N-[(cis)-4-hydroxy-1-oxidotetrahydro-thiophen-3-yl]-3-oxo-2-(pyridin-3-yl)-6-[4-(trifluoromethyl)phenyl]-2,3-dihydropyridazine-4-carboxamide]: the IC50 was 295 nM.

For `C[C@@H](CS(C)(=O)=NC(=O)C(F)(F)F)NC(=O)c1cc(-c2ccc(C(F)(F)F)cc2)nn(-c2cnn(C)c2)c1=O` (stereo partly drawn) [Example 41, 2-(1-Methyl-1H-pyrazol-4-yl)-N-{(2S)-1-[S-methyl-N-(trifluoroacetyl)sulfonimidoyl]propan-2-yl}-3-oxo-6-[4-(trifluoromethyl)phenyl]-2,3-dihydropyridazine-4-carboxamide], the IC50 was found to be 39.2 nM.

With `O=C(N[C@H]1CS(=O)(=O)C[C@H]1O)c1cc(-c2ccc(Cl)cc2)nn(-c2cccc(F)c2)c1=O` (single isomer, unassigned) [Example 56, 6-(4-Chlorophenyl)-2-(3-fluorophenyl)-N-[(cis)-4-hydroxy-1,1-dioxidotetrahydrothiophen-3-yl]-3-oxo-2,3-dihydropyridazine-4-carboxamide], the IC50 came out at 65.3 nM.

On to `C[S+]([O-])CCNC(=O)c1cc(-c2ccc(Cl)cc2)nn(-c2cccc(F)c2)c1=O` (stereo not shown) [Example 51, 6-(4-Chlorophenyl)-2-(3-fluorophenyl)-N-[2-(methylsulfinyl)ethyl]-3-oxo-2,3-dihydropyridazine-4-carboxamide], for which the IC50 worked out at 393 nM.

Take `N=S1(=O)C[C@H](O)[C@H](NC(=O)c2cc(-c3ccc(Cl)cc3)nn(-c3cccc(F)c3)c2=O)C1` (stereo partly drawn) [Example 42, 6-(4-chlorophenyl)-2-(3-fluorophenyl)-N-[(cis)-4-hydroxy-1-imino-1-oxidotetrahydro-1H-1lambda4-thiophen-3-yl]-3-oxo-2,3-dihydropyridazine-4-carboxamide]: the IC50 came to 34.9 nM.

As to `O=C(N[C@@H]1CS(=O)(=O)C[C@@H]1O)c1cc(-c2ccc(C(F)(F)F)cc2)nn(-c2cccnc2)c1=O` (single isomer, unassigned) [Example 18], the IC50 worked out at 38.2 nM.

Consider `O=C(N[C@@H]1C[S+]([O-])C[C@@H]1O)c1cc(-c2ccc(Cl)cc2)nn(-c2cccc(F)c2)c1=O` (single isomer, unassigned; (+)) [Example 27, (+)-6-(4-chlorophenyl)-2-(3-fluorophenyl)-N-[(cis)-4-hydroxy-1-oxidotetrahydro-thiophen-3-yl]-3-oxo-2,3-dihydropyridazine-4-carboxamide], for which the IC50 came out at 93.5 nM.

For `O=C(N[C@@H]1C[S+]([O-])C[C@@H]1O)c1cc(-c2ccc(C(F)(F)F)cc2)nn(-c2cccnc2)c1=O` (single isomer, unassigned) [Example 34, N-[(cis)-4-hydroxy-1-oxidotetrahydro-thiophen-3-yl]-3-oxo-2-(pyridin-3-yl)-6-[4-(trifluoromethyl)phenyl]-2,3-dihydropyridazine-4-carboxamide], the IC50 came out at 78.8 nM.

Take `CS(=N)(=O)CCNC(=O)c1cc(-c2ccc(Cl)cc2)nn(-c2cccc(F)c2)c1=O` (single isomer, unassigned) [Example 53, 6-(4-Chlorophenyl)-2-(3-fluorophenyl)-N-[2-(S-methylsulfonimidoyl)ethyl]-3-oxo-2,3-dihydropyridazine-4-carboxamide]: the IC50 came out at 843 nM.
